Test results as given in ChEMBL document CHEMBL5385929, “Tabersonine Enhances Olaparib Sensitivity through FHL1-Mediated Epithelial-Mesenchymal Transition in an Ovarian Tumor” (J Nat Prod, 2024).
pIC50: −log10 of the molar value. Active and inactive are the calls of the source. The rule behind the calls is not given here.

Tests used:
A2780 [1] = test: Antiproliferative activity against human A2780 cells assessed as inhibition of cell viability measured after 48 hrs by CCK8 assay; type: functional, cell-based; conditions: A2780, 48 h
A2780 [2] = test: Potentiation of olaparib sensitivity in human A2780 cells assessed as inhibition of cell viability at 10 uM measured after 5 days in presence of olaparib by CCK8 assay; type: functional, cell-based; conditions: time 5.0 day
A2780 [3] = test: Antitumor activity against human A2780 cells xenografted in BALB/c mouse assessed as decrease in tumor growth at 5 to 15 mg/kg, ip administered every other day for 2 weeks; type: functional, organism-based; conditions: dose 5-15 mg/kg
A2780 [4] = test: Antitumor activity against human A2780 cells xenografted in BALB/c mouse assessed as decrease in tumor volume at 5 to 15 mg/kg, ip administered every other day for 2 weeks; type: functional, organism-based; conditions: dose 5-15 mg/kg
[5] = Toxicity in BALB/c mouse xenografted with human A2780 cells assessed as effect on body weight at 15 mg/kg, ip co-administered with olaparib for 2 weeks; type: organism-based; conditions: in vivo, 336 h
A2780 [6] = test: Downregulation of EMT signalling in human A2780 cells assessed as upregulation of E-cadherin protein expression at 10 uM by western blot analysis; type: functional, cell-based
A2780 [7] = test: Downregulation of EMT signalling in human A2780 cells assessed as downregulation of N-cadherin protein expression at 10 uM by western blot analysis; type: functional, cell-based
SK-OV-3 [8] = test: Downregulation of EMT signalling in human SK-OV-3 cells assessed as downregulation of vimentin protein expression at 10 uM by western blot analysis; type: functional, cell-based
A2780 [9] = test: Potentiation of olaparib sensitivity in human A2780 cells assessed as downregulation of EMT signaling by measuring upregulation of E-cadherin protein expression at 10 uM in presence of olaparib by western blot analysis; type: functional, cell-based
A2780 [10] = test: Potentiation of olaparib sensitivity in human A2780 cells assessed as downregulation of EMT signaling by measuring downregulation of N-cadherin protein expression at 10 uM in presence of olaparib by western blot analysis; type: functional, cell-based
A2780 [11] = test: Inhibition of cell migration in human A2780 cells at 10 uM measured after 24 to 48 hrs by wound healing assay; type: functional, cell-based; conditions: time 24-48 hrs
SK-OV-3 [12] = test: Inhibition of cell migration in human SK-OV-3 cells at 10 uM measured after 24 to 48 hrs by wound healing assay; type: functional, cell-based; conditions: time 24-48 hrs
A2780 [13] = test: Potentiation of olaparib sensitivity in human A2780 cells assessed as inhibition of cell migration at 10 uM measured after 24 to 48 hrs in presence of olaparib by wound healing assay; type: functional, cell-based; conditions: time 24-48 hrs
SK-OV-3 [14] = test: Potentiation of olaparib sensitivity in human SK-OV-3 cells assessed as inhibition of cell migration at 10 uM measured after 24 to 48 hrs in presence of olaparib by wound healing assay; type: functional, cell-based; conditions: time 24-48 hrs
SK-OV-3 [15] = test: Effect on FHL1 mRNA expression in human SK-OV-3 cells at 5 to 20 uM by real-time PCR analysis; type: functional, cell-based; conditions: dose 5-20 µM
A2780 [16] = test: Downregulation of EMT signalling in human A2780 cells transfected with shFHL1-1 RNA assessed as E-cadherin protein expression at 10 uM by western blot analysis; type: functional, cell-based
A2780 [17] = test: Downregulation of EMT signalling in human A2780 cells transfected with shFHL1-2 RNA assessed as vimentin protein expression at 10 uM by western blot analysis; type: functional, cell-based
SK-OV-3 [18] = test: Downregulation of EMT signalling in human SK-OV-3 cells transfected with shFHL1-1 RNA assessed as E-cadherin protein expression at 10 uM by western blot analysis; type: functional, cell-based
SK-OV-3 [19] = test: Downregulation of EMT signalling in human SK-OV-3 cells transfected with shFHL1-2 RNA assessed as N-cadherin protein expression at 10 uM by western blot analysis; type: functional, cell-based
A2780 [20] = test: Inhibition of cell invasion in human A2780 cells transfected with shFHL1-2 RNA at 10 uM measured after 48 hrs by Transwell assay; type: functional, cell-based
SK-OV-3 [21] = test: Inhibition of cell invasion in human SK-OV-3 cells transfected with shFHL1-1 RNA at 10 uM measured after 48 hrs by Transwell assay; type: functional, cell-based
SK-OV-3 [22] = test: Inhibition of cell invasion in human SK-OV-3 cells transfected with shFHL1-2 RNA at 10 uM measured after 48 hrs by Transwell assay; type: functional, cell-based
A2780 [23] = test: Inhibition of cell migration in human A2780 cells transfected with shFHL1-2 RNA at 10 uM measured after 24 to 48 hrs by wound healing assay; type: functional, cell-based; conditions: time 24-48 hrs
A2780 [24] = test: Potentiation of olaparib sensitivity in human A2780 cells transfected with shFLH1-1 RNA assessed as downregulation of EMT signaling by measuring vimentin protein expression at 10 uM in presence of olaparib by western blot analysis; type: functional, cell-based
A2780 [25] = test: Potentiation of olaparib sensitivity in human A2780 cells transfected with shFLH1-2 RNA assessed as downregulation of EMT signaling by measuring E-cadherin protein expression at 10 uM in presence of olaparib by western blot analysis; type: functional, cell-based
SK-OV-3 [26] = test: Potentiation of olaparib sensitivity in human SK-OV-3 cells transfected with shFLH1-1 RNA assessed as downregulation of EMT signaling by measuring N-cadherin protein expression at 10 uM in presence of olaparib by western blot analysis; type: functional, cell-based
SK-OV-3 [27] = test: Potentiation of olaparib sensitivity in human SK-OV-3 cells transfected with shFLH1-2 RNA assessed as downregulation of EMT signaling by measuring vimentin protein expression at 10 uM in presence of olaparib by western blot analysis; type: functional, cell-based
A2780 [28] = test: Potentiation of olaparib sensitivity in human A2780 cells transfected with shFHL1-1 RNA assessed as inhibition of cell invasion at 10 uM measured after 48 hrs in presence of olaparib by Transwell assay; type: functional, cell-based
A2780 [29] = test: Potentiation of olaparib sensitivity in human A2780 cells transfected with shFHL1-2 RNA assessed as inhibition of cell invasion at 10 uM measured after 48 hrs in presence of olaparib by Transwell assay; type: functional, cell-based
SK-OV-3 [30] = test: Potentiation of olaparib sensitivity in human SK-OV-3 cells transfected with shFHL1-1 RNA assessed as inhibition of cell invasion at 10 uM measured after 48 hrs in presence of olaparib by Transwell assay; type: functional, cell-based
A2780 [31] = test: Potentiation of olaparib-induced antitumor activity against shNC RNA-transfected human A2780 cells xenografted in BALB/c mouse assessed as decrease in tumor volume at 15 mg/kg, ip co-administered with olaparib for 2 weeks; type: functional, organism-based
A2780 [32] = test: Potentiation of olaparib-induced antitumor activity against shFHL1-1 RNA-transfected human A2780 cells xenografted in BALB/c mouse assessed as decrease in tumor weight at 15 mg/kg, ip co-administered with olaparib for 2 weeks; type: functional, organism-based
Mus musculus = test: Potentiation of olaparib sensitivity in BALB/c mouse xenografted with shFHL1-1 RNA-transfected human A2780 cells assessed as upregulation of FHL1 protein expression in tumor at 15 mg/kg, ip co-administered with olaparib for 2 weeks by western blot analysis; type: functional, organism-based
A2780 [33] = test: Potentiation of olaparib-induced antitumor activity against shFHL1-1 RNA-transfected human A2780 cells xenografted in BALB/c mouse assessed as decrease in lung metastatic nodules at 15 mg/kg, ip co-administered with olaparib every other day from day 6 of tumor cell inoculation and measured on day 30 post-tumor cell inoculation by H and E staining based bright field microscopic analysis; type: functional, organism-based; conditions: time 24.0 day

## CC[C@]12C=CCN3CC[C@]4(C(=C(C(=O)OC)C1)Nc1ccccc14)[C@@H]32 [TABERSONINE]
A2780 [1]
  pIC50: 4.74
A2780 [2]
  Activity: Active
A2780 [3]
  Activity: Active
A2780 [4]
  Activity: Active
[5]
  Activity: Non-Toxic
A2780 [6]
  inhibition: Active
A2780 [7]
  inhibition: Active
SK-OV-3 [8]
  inhibition: Active
A2780 [9]
  Activity: Active
A2780 [10]
  Activity: Active
A2780 [11]
  inhibition: Active
SK-OV-3 [12]
  inhibition: Active
A2780 [13]
  Activity: Active
SK-OV-3 [14]
  Activity: Active
SK-OV-3 [15]
  Activity: inactive
A2780 [16]
  inhibition: inactive
A2780 [17]
  inhibition: inactive
SK-OV-3 [18]
  inhibition: inactive
SK-OV-3 [19]
  inhibition: inactive
A2780 [20]
  inhibition: inactive
SK-OV-3 [21]
  inhibition: inactive
SK-OV-3 [22]
  inhibition: inactive
A2780 [23]
  inhibition: inactive
A2780 [24]
  Activity: inactive
A2780 [25]
  Activity: inactive
SK-OV-3 [26]
  Activity: inactive
SK-OV-3 [27]
  Activity: inactive
A2780 [28]
  Activity: inactive
A2780 [29]
  Activity: inactive
SK-OV-3 [30]
  Activity: inactive
A2780 [31]
  Activity: Active
A2780 [32]
  Activity: inactive
Mus musculus
  Activity: inactive
A2780 [33]
  Activity: inactive
